Reference: ChEMBL document CHEMBL3217649, “Synthesis of new N-substituted aminoquercitols from naturally available (+)-proto-quercitol and their -glucosidase inhibitory activity” (Medchemcomm, 2012)
The source made the active and inactive calls. The rule behind the calls is not given here.

Assays:
[1] = Inhibition of baker's yeast type 1 alpha-glucosidase using p-nitrophenyl-alpha-D-glucopyranoside as substrate incubated for 10 mins prior to substrate challenge for 20 mins by microplate reader analysis; parameters: species or system Saccharomyces cerevisiae
[2] = Inhibition of type 2 alpha-glucosidase in rat small intestine using maltose as substrate after 10 mins by microplate reader analysis
[3] = biological target: Sucrase-isomaltase, intestinal (Rattus norvegicus, UniProt P23739); experiment: Inhibition of sucrase in rat small intestine using sucrose as substrate after 40 mins by microplate reader analysis
Chain of Sucrase-isomaltase, intestinal (P23739 1-1013 limits assumed): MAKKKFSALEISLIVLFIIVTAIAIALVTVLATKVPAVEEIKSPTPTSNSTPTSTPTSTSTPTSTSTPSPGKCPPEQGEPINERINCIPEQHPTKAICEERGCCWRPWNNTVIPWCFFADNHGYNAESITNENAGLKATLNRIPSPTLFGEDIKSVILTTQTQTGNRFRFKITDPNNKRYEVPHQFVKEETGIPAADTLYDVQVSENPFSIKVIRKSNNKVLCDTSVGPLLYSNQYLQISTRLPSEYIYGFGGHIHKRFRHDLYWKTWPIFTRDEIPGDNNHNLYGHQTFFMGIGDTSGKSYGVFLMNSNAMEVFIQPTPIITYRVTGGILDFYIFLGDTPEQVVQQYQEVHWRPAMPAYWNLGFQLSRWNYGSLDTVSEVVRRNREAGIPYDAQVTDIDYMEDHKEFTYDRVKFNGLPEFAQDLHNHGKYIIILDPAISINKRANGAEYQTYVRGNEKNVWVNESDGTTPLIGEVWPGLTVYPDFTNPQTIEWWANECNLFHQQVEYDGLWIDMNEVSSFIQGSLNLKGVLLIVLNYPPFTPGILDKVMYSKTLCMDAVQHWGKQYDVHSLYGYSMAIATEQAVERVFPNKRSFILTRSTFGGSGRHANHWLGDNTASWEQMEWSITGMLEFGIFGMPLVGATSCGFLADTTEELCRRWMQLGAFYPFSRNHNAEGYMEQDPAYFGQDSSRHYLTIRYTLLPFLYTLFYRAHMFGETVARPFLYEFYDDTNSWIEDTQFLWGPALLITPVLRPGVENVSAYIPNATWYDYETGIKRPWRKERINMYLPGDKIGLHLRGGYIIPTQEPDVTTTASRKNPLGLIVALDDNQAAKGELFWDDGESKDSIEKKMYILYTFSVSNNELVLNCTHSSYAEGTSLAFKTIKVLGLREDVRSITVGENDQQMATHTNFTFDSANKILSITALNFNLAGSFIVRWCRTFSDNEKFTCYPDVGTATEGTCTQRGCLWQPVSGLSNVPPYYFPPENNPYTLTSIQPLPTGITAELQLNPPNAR
Chain of Sucrase-isomaltase, intestinal (P23739 1014-1841 limits assumed): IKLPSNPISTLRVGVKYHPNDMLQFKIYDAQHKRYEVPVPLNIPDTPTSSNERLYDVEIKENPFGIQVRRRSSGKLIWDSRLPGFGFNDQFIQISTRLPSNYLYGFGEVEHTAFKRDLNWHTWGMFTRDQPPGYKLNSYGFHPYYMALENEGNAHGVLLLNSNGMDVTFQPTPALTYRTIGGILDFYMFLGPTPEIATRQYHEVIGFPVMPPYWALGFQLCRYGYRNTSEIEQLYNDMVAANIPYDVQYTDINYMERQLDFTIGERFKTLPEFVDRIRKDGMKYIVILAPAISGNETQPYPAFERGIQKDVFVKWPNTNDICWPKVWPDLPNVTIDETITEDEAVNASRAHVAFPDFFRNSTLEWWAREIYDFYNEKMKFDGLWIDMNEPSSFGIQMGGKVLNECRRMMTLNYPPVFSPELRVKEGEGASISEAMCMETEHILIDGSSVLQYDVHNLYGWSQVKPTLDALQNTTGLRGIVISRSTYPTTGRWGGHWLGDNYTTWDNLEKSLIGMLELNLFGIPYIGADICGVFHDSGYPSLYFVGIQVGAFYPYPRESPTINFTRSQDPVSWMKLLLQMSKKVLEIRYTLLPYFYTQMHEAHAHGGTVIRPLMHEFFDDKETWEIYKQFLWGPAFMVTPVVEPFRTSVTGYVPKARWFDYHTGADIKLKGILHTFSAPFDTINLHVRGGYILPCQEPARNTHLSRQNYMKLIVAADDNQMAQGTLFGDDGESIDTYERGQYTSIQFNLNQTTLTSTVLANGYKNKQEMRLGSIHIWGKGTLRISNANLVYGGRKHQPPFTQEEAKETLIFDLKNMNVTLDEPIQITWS

[4] = test system: Saccharomyces cerevisiae; experiment: Inhibition of baker's yeast type 1 alpha-glucosidase using p-nitrophenyl-alpha-D-glucopyranoside as substrate at 10 mg/ml incubated for 10 mins prior to substrate challenge for 20 mins by microplate reader analysis
[5] = biological target: Sucrase-isomaltase, intestinal (Rattus norvegicus) (UniProt P23739); experiment: Inhibition of sucrase in rat small intestine using sucrose as substrate at 1 mg/ml after 40 mins by microplate reader analysis
Chain of Sucrase-isomaltase, intestinal (Rattus norvegicus) (P23739 1-1013 limits assumed): as the sequence (P23739 1-1013 limits assumed) above
Chain of Sucrase-isomaltase, intestinal (Rattus norvegicus) (P23739 1014-1841 limits assumed): as the sequence (P23739 1014-1841 limits assumed) above

[6] = organism: Rattus norvegicus; experiment: Inhibition of type 2 alpha-glucosidase in rat small intestine using maltose as substrate at 1 mg/ml after 10 mins by microplate reader analysis
[7] = organism: Rattus norvegicus; experiment: Competitive inhibition of maltase in rat small intestine using maltose as substrate by Lineweaver-Burk plot analysis
[8] = Inhibition of maltase in rat small intestine using maltose as substrate by Lineweaver-Burk plot based secondary replot analysis; type: tissue-based
[9] = organism: Rattus norvegicus; experiment: Ratio of acarbose IC50 to compound IC50 for type 2 alpha-glucosidase in rat small intestine
[10] = test system: Saccharomyces cerevisiae; experiment: Ratio of acarbose IC50 to compound IC50 for baker's yeast type 1 alpha-glucosidase

Row | Structure (SMILES) | IC50 [1] | IC50 [2] | inhibition [4] | inhibition [5] | also measured
1 | CCCC(=O)N[C@@H]1C[C@@H](O)[C@H](O)[C@@H](O)[C@H]1O | 1200 µM | 19 µM |  |  | IC50 [3]: 4.7 µM
2 | CCCCCCN(CCCCCC)[C@@H]1C[C@@H](O)[C@H](O)[C@@H](O)[C@H]1O |  | 48 µM | < 30% | < 30% | 
3 | CCN[C@H]1C[C@@H](O)[C@H](O)[C@@H](O)[C@H]1O |  |  | < 30% | < 30% | inhibition [6]: 30%
4 | CCCCCC(=O)N[C@@H]1C[C@@H](O)[C@H](O)[C@@H](O)[C@H]1O | 1700 µM | 3.8 µM |  |  | IC50 [3]: 6.1 µM
5 | CCCCCCCCCCN[C@H]1C[C@@H](O)[C@H](O)[C@@H](O)[C@H]1O |  | 2 µM | < 30% |  | IC50 [3]: 410 µM
6 | CCCCCCCCCCCCN[C@@H]1C[C@@H](O)[C@H](O)[C@@H](O)[C@H]1O |  | 1.5 µM | < 30% | < 30% | 
7 | C[C@H]1O[C@H](O[C@H]2[C@H](O)[C@@H](O)[C@@H](O[C@H]3[C@H](O)[C@@H](O)C(O)O[C@@H]3CO)O[C@@H]2CO)[C@H](O)[C@@H](O)[C@@H]1N[C@H]1C=C(CO)[C@@H](O)[C@H](O)[C@H]1O (stereo partly drawn) [ACARBOSE] | 480 µM | 1.5 µM |  |  | competitive inhibition (Lineweaver-Burk) [7]: Active; Ki [8]: 0.99 µM
8 | CCCC(=O)N[C@H]1C[C@@H](O)[C@H](O)[C@@H](O)[C@H]1O |  | 38 µM | < 30% | < 30% | 
9 | CCCCN[C@H]1C[C@@H](O)[C@H](O)[C@@H](O)[C@H]1O |  | 290 µM | < 30% | < 30% | 
10 | CCCCN(CCCC)[C@@H]1C[C@@H](O)[C@H](O)[C@@H](O)[C@H]1O | 1800 µM | 7.6 µM |  | < 30% | 
11 | CCCCCC(=O)N[C@H]1C[C@@H](O)[C@H](O)[C@@H](O)[C@H]1O |  | 4.2 µM | < 30% | < 30% | 
12 | CCCCN(CCCC)[C@H]1C[C@@H](O)[C@H](O)[C@@H](O)[C@H]1O | 2300 µM | 24 µM |  |  | IC50 [3]: 36 µM
13 | CCCCN[C@@H]1C[C@@H](O)[C@H](O)[C@@H](O)[C@H]1O | 1200 µM | 57 µM |  | < 30% | 
14 | CCCCCCN[C@H]1C[C@@H](O)[C@H](O)[C@@H](O)[C@H]1O |  | 2.5 µM | < 30% | < 30% | 
15 | CCCCCCCCCCCCN[C@H]1C[C@@H](O)[C@H](O)[C@@H](O)[C@H]1O |  | 1.9 µM | < 30% | < 30% | 
16 | CCCCCCCCCCCC(=O)N[C@H]1C[C@@H](O)[C@H](O)[C@@H](O)[C@H]1O |  | 10 µM | < 30% | < 30% | 
17 | CC(=O)N[C@H]1C[C@@H](O)[C@H](O)[C@@H](O)[C@H]1O | 270 µM | 180 µM |  | < 30% | 
18 | CCCCCCCCCC(=O)N[C@@H]1C[C@@H](O)[C@H](O)[C@@H](O)[C@H]1O |  | 3.5 µM | < 30% | < 30% | 
19 | CCN(CC)[C@H]1C[C@@H](O)[C@H](O)[C@@H](O)[C@H]1O | 1600 µM | 21 µM |  |  | IC50 [3]: 360 µM
20 | CCCCCCCCCCCC(=O)N[C@@H]1C[C@@H](O)[C@H](O)[C@@H](O)[C@H]1O |  | 7.4 µM | < 30% | < 30% | 
21 | CCCCCCN(CCCCCC)[C@H]1C[C@@H](O)[C@H](O)[C@@H](O)[C@H]1O |  | 32 µM | < 30% |  | IC50 [3]: 120 µM
22 | CCCCCCCCCCN[C@@H]1C[C@@H](O)[C@H](O)[C@@H](O)[C@H]1O |  | 0.41 µM | < 30% | < 30% | Ratio IC50 [9]: 3
23 | CCCCCCN[C@@H]1C[C@@H](O)[C@H](O)[C@@H](O)[C@H]1O | 400 µM | 0.24 µM |  | < 30% | Ratio IC50 [9]: 3; competitive inhibition (Lineweaver-Burk) [7]: Active; Ki [8]: 0.73 µM
24 | CCCCCCCCCC(=O)N[C@H]1C[C@@H](O)[C@H](O)[C@@H](O)[C@H]1O |  | 2 µM | < 30% | < 30% | competitive inhibition (Lineweaver-Burk) [7]: Active; Ki [8]: 1.5 µM
25 | CCN(CC)[C@@H]1C[C@@H](O)[C@H](O)[C@@H](O)[C@H]1O | 1600 µM | 5 µM |  | < 30% | competitive inhibition (Lineweaver-Burk) [7]: Active; Ki [8]: 3.5 µM
26 | CC(=O)N[C@@H]1C[C@@H](O)[C@H](O)[C@@H](O)[C@H]1O | 150 µM | 5.3 µM |  |  | IC50 [3]: 5.3 µM; Ratio IC50 [10]: 3
